{"source": "patent US12295963B2", "about": "“Treating pain associated with diabetic peripheral neuropathy” (MEDICON PHARMACEUTICALS, INC., priority 2021, dated 2025)", "key": {"[1]": {"tested_on": "mechanical allodynia in STZ-induced DPN rats", "experiment": "Treatment of neuropathic pain in STZ-induced rat model of DPN, paw withdrawal threshold (von Frey filaments)", "type": "in vivo, Sprague-Dawley rats", "settings": "for effect on PWT compared to vehicle (treatment study): established DPN, result in words", "description": "DPN was induced via chemically-induced increases in blood glucose in rats, using streptozotocin (STZ). This is a well-established model for DPN (see Morrow, Current Protocols in Neuroscience (2004); 29(1): 1-11), in which the STZ, an antibiotic extract from Streptomyces acromogenes, selectively damages the β cells of the pancreas.\nSprague-Dawley rats were fasted for 4-6 hours before being injected intraperitoneally with 45 mg/kg STZ. This was performed for all experimental groups, except the naïve group. In order to prevent hypoglycaemic death, rats received 10% sucrose water as the sole water source for the first 48 hours after injection. In order to ensure only those rats considered diabetic (i.e., having non-fasting plasma glucose levels of >250 mg/dL) were included in the study, blood glucose was measured at 72 hours after the STZ injection.\nThis delay between STZ injection and treatment allows the establishment of chronic pain (allodynia) associated with peripheral and central sensitisation. PS (as an 8% hydrogel) or vehicle control were administered topically to both hind paws of the rats 3 times a day for 3 weeks starting at week 4 after STZ injection. […] 5% lidocaine cream (a positive control) was applied only once to both hind paws of the rats 30 minutes before measurement of PWT.\nThe rats were split into 8 study groups, with those in the experimental groups (1-4) having an average body weight of about 225 g, and those in the control groups (5-8) having an average body weight of about 335 g, as follows: • 1. Group 1: naïve rats (n=5) • 2. Group 2: STZ only (n=6) • 3. Group 3: STZ plus vehicle (n=6) • 4. Group 4: STZ plus PS (8% hydrogel) (n=7) • 5. Group 5: STZ plus oral vehicle (n=8) • 6. […] Group 7: STZ plus 5% lidocaine cream (n=8) • 8.\nIn order to determine the outcome of the treatment, mechanical allodynia was measured using the well-established method of von Frey filaments. In particular, a simplified up-down method for estimating paw withdrawal threshold (PWT) using von Frey filaments was used (as described in Bonin et al., Molecular Pain (2014); 10(26):1-10)). The results of the PWT test are expressed as force applied (gm)."}, "[2]": {"tested_on": "mechanical allodynia in STZ-induced DPN rats", "experiment": "Prevention of neuropathic pain in STZ-induced rat model of DPN, paw withdrawal threshold (von Frey filaments)", "type": "in vivo", "settings": "prevention protocol; for von Frey, gm mean ± SEM (PWT): PS 8% hydrogel or sulindac 0.7% hydrogel topical 3 times a day from day -2 to day 28, lidocaine 5% cream once 30 min before PWT, PWT on day 28; for effect on PWT compared to vehicle (prevention study): day 28, result in words", "source_text": "DPN was induced via chemically-induced increases in blood glucose in rats, using streptozotocin (STZ).\nThe animal model corresponds to that used for Example 1, but using a prevention protocol. As in Example 1, the outcome measure, determining the effect of the treatment on the prevention of mechanical allodynia, was the PWT test, using von Frey filaments. The measurements were taken at day −3, before treatment or induction of neuropathic pain associated with DPN, and again at the end of the study period (day 28).\nThe rats were randomised into treatment groups as follows, all having an average body weight of about 225 g. • 1. Group 1: naïve rats (n=6) • 2. Group 2: STZ only (n=8) • 3. Group 3: STZ plus vehicle (n=8) • 4. Group 4: STZ plus PS 8% (n=8) • 5. […] Group 6: STZ plus lidocaine cream 5% (n=8)\nEach treatment group was subjected to a PWT assessment at day −3 in order to determine the baseline of mechanical allodynia. […] For those rats in the lidocaine treatment group, lidocaine cream was applied only once to both hind paws of the rats 30 min before the final PWT measurement on day 28. On day 0, neuropathic pain associated with DPN was induced with the administration of STZ, and the blood glucose was checked on day 3. Four weeks after the administration of STZ, to provide sufficient time to allow the neuropathic pain associated with DPN (manifested as mechanical allodynia) to develop (see the STZ only group in FIG. 5), the rats were subjected to the paw withdrawal threshold test."}, "[3]": {"experiment": "Pharmacokinetics and biodistribution of PS and its metabolites after topical administration to hind paws", "settings": "for AUC0-24h of PS / Tmax of PS / T1/2 of PS / Cmax: 50 μl per hind paw; for Cmax: read-out: Cmax of PS, mean ± SEM", "description": "PS 8% ointment was applied topically to each hind paw (50 μl per paw) with gentle rubbing. At 0.5, 1, 3, 5, 12, 18, and 24 h, mice (n=4-5 mice/time point) were euthanized with CO2 inhalation. Blood was drawn immediately after death. Tissues, including paw skin, paw muscle, leg muscle, the sciatic nerve and lumbar DRG bilaterally were dissected quickly, immediately frozen in liquid nitrogen and stored at −80° C. until analyzed.\nFollowing addition of acetonitrile (twice the volume of the homogenate), the mixture was sonicated for 10 min, centrifuged at 13,200 rpm for 15 min, and analyzed by HPLC, as reported (Wen et al., 2019).\nSince the metabolism and PK/biodistribution of PS vary depending on its route of administration, we studied both in normal mice in which PS was administered topically to their hind paws, with particular attention to the sciatic nerve and the dorsal root ganglia (DRG) that are affected in DPN."}, "[4]": {"settings": "treatment protocol from week 4, sulindac 0.7% hydrogel topical 3 times a day for 1 week (PWT week 5), lidocaine 5% cream once 30 min before PWT, pregabalin 10 mg/kg oral once 1 h before PWT"}, "[5]": {"settings": "dorsal root ganglia (DRG), normal mice, PS 8% ointment topical"}, "[6]": {"settings": "leg muscle, normal mice, PS 8% ointment topical"}, "[7]": {"settings": "paw muscle, normal mice, PS 8% ointment topical"}, "[8]": {"settings": "paw skin, normal mice, PS 8% ointment topical"}, "[9]": {"settings": "sciatic nerve (SN), normal mice, PS 8% ointment topical"}}, "note": "Where two headings read alike, the source gives them in different places.", "data": [{"molecule": "CCN(CC)CC(=O)Nc1c(C)cccc1C", "note": "[lidocaine]", "values": [{"measurement": "effect on PWT compared to vehicle (treatment study)", "setting": "[1]", "result": "significant increases in PWT compared to vehicle"}, {"measurement": "PWT, gm Mean ± SEM", "setting": "[1]; [4]", "result": "26.0 ± 1.8", "unit": "gm"}, {"measurement": "von Frey, gm mean ± SEM (PWT)", "setting": "[2]", "result": "34.3 ± 1.6", "unit": "gm"}, {"measurement": "effect on PWT compared to vehicle (prevention study)", "setting": "[2]", "result": "significantly increased the PWT compared to vehicle"}]}, {"molecule": "CC(C)C[C@H](CN)CC(=O)O", "note": "[pregabalin]", "values": [{"measurement": "effect on PWT compared to vehicle (treatment study)", "setting": "[1]", "result": "significant increases in PWT compared to vehicle"}]}, {"molecule": "CC1=C(CC(=O)O)c2cc(F)ccc2/C1=C\\c1ccc(S(C)(=O)=O)cc1", "note": "[sulindac sulfone]", "values": [{"measurement": "detection as metabolite of PS", "setting": "[3]; mouse tissues and blood after PS 8% ointment topical, HPLC, limit of quantitation 0.05 μM", "result": "detected"}]}, {"molecule": "CC1=C(CC(=O)O)c2cc(F)ccc2/C1=C\\c1ccc([S+](C)[O-])cc1", "note": "(stereo not drawn) [sulindac]", "values": [{"measurement": "effect on PWT compared to vehicle (treatment study)", "setting": "[1]", "result": "failed to suppress the reduced PWT caused by STZ"}, {"measurement": "PWT, gm Mean ± SEM", "setting": "[1]; [4]", "result": "23.2 ± 2.6", "unit": "gm"}, {"measurement": "von Frey, gm mean ± SEM (PWT)", "setting": "[2]", "result": "27.7 ± 1.4", "unit": "gm"}, {"measurement": "effect on PWT compared to vehicle (prevention study)", "setting": "[2]", "result": "no significant effect on PWT compared to the vehicle"}]}, {"molecule": "phosphosulindac [PS]", "values": [{"measurement": "effect on PWT compared to vehicle (treatment study)", "setting": "[1]", "result": "significant increase in PWT compared to vehicle and STZ"}, {"measurement": "PWT, gm Mean ± SEM", "setting": "[1]; treatment protocol, PS 8% hydrogel topically to both hind paws 3 times a day for 3 weeks from week 4 after STZ, PWT at week 7, 30 min after last treatment", "result": "22.5 ± 2.20", "unit": "gm"}, {"measurement": "von Frey, gm mean ± SEM (PWT)", "setting": "[2]", "result": "33.1 ± 1.6", "unit": "gm"}, {"measurement": "effect on PWT compared to vehicle (prevention study)", "setting": "[2]", "result": "significant increase in PWT compared to vehicle"}, {"measurement": "PS in the systemic circulation", "setting": "[3]; blood, normal mice, PS 8% ointment topical, limit of quantitation 0.1 μM", "result": "no PS was detected"}, {"measurement": "AUC0-24h of PS", "setting": "[3]; [5]", "result": 4.5, "unit": "µM·h"}, {"measurement": "Tmax of PS", "setting": "[3]; [5]", "result": 18, "unit": "h"}, {"measurement": "AUC0-24h of PS", "setting": "[3]; [6]", "result": 171.6, "unit": "µM·h"}, {"measurement": "T1/2 of PS", "setting": "[3]; [6]", "result": 20.6, "unit": "h"}, {"measurement": "Tmax of PS", "setting": "[3]; [6]", "result": 0.5, "unit": "h"}, {"measurement": "Tmax of PS in all tissues with the exception of DRG", "setting": "[3]; normal mice, PS 8% ointment topical", "result": 0.5, "unit": "h"}, {"measurement": "AUC0-24h of PS", "setting": "[3]; [7]", "result": 411.2, "unit": "µM·h"}, {"measurement": "T1/2 of PS", "setting": "[3]; [7]", "result": 11.4, "unit": "h"}, {"measurement": "Tmax of PS", "setting": "[3]; [7]", "result": 0.5, "unit": "h"}, {"measurement": "AUC0-24h of PS", "setting": "[3]; [8]", "result": "1,609.8 μM · h"}, {"measurement": "T1/2 of PS", "setting": "[3]; [8]", "result": 16.1, "unit": "h"}, {"measurement": "Tmax of PS", "setting": "[3]; [8]", "result": 0.5, "unit": "h"}, {"measurement": "t1/2 of PS in the skin and the muscles", "setting": "[3]; range over paw skin, paw muscle, leg muscle, normal mice, PS 8% ointment topical", "result": "11.4 to 20.6", "unit": "h"}, {"measurement": "Cmax", "setting": "[3]; [5]", "result": "0.3 ± 0.1", "unit": "µM"}, {"measurement": "Cmax", "setting": "[3]; [6]", "result": "35 ± 3.6", "unit": "µM"}, {"measurement": "Cmax", "setting": "[3]; [7]", "result": "102 ± 4.6", "unit": "µM"}, {"measurement": "Cmax", "setting": "[3]; [8]", "result": "195 ± 5.3", "unit": "µM"}, {"measurement": "Cmax", "setting": "[3]; [9]", "result": "0.9 ± 0.1", "unit": "µM"}, {"measurement": "AUC0-24h of PS", "setting": "[3]; [9]", "result": 12.0, "unit": "µM·h"}, {"measurement": "T1/2 of PS", "setting": "[3]; [9]", "result": 57.4, "unit": "h"}, {"measurement": "Tmax of PS", "setting": "[3]; [9]", "result": 0.5, "unit": "h"}]}]}
